{"source": "paper PMC11173897", "about": "“Computational Docking as a Tool in Guiding the Drug Design of Rutaecarpine Derivatives as Potential SARS-CoV-2 Inhibitors” (Molecules, 2024)", "key": {"[1]": {"test_system": "TNF-α, IL-6 and IL-1β mRNA in RAW264.7 cells", "details": "previous investigation; cited from earlier work"}, "cells": {"test_system": "cells", "details": "MTT assay, Figure S1"}, "SARS-CoV-2 3CL protease [2]": {"molecular_target": "T1, SARS-CoV-2 3CL protease (Severe acute respiratory syndrome coronavirus 2, UniProt P0DTD1)", "assay": "3CL protease assay (SensoLyte fluorogenic kit)", "format": "biochemical", "details": "n = 4"}, "SARS-CoV-2 3CL protease [3]": {"molecular_target": "T1, SARS-CoV-2 3CL protease", "details": "cited from earlier work"}, "S-protein–ACE2 complex [4]": {"molecular_target": "T2, S-protein–ACE2 complex (Severe acute respiratory syndrome coronavirus 2, UniProt P0DTC2)", "T2 construct": "purchased ImmunoDiagnostics Ltd., Hong Kong, China", "assay": "S-protein-based ELISA (spike–ACE2 binding assay kit)", "parameters": "species or system SARS-CoV-2", "details": "for IC50: tested at 0.1, 1, 5, 10, 20 µM, n = 4, read-out: IC50, disrupting the S-protein–ACE2 complex; for maximal inhibition, higher than that of RU: S-protein-based ELISA, compared with RU", "text": "An S-protein-based ELISA was utilized to determine the binding activities of RU-75 and RU-184 to the S-protein–ACE2 complex. A standard inhibitor, provided by the supplier (calibrated to NIBSC code 20/136), was employed as a positive control (Figure 6A). […] The maximal inhibition, triggered by RU-75 and RU-184, was at least 20% higher than that of RU.\n(A) A standard inhibitor, provided by supplier (calibrated to NIBSC code 20/136), was used as a positive control. (B) Rutaecarpine, RU-75 and RU-184 were detected at concentrations of 0.1, 1, 5, 10, 20 µM. The IC50 values are shown.\nSpike (S)-protein inhibition was analyzed with the SARS-CoV-2 spike–ACE2 binding assay kit (ImmunoDiagnostics Ltd., Hong Kong, China), according to the manufacturer’s instructions. The reaction was terminated by the addition of 2 M H2SO4, and the data were quantified using a microplate reader (FlexStation; Molecular Devices, San Jose, CA). The percentage of inhibition was calculated as follows:\nPercentage of inhibition = (PAvg − SAvg)/PAvg × 100%, where PAvg and SAvg are the mean OD values of the positive control and test sample, respectively."}, "S-protein–ACE2 complex [5]": {"molecular_target": "T2, S-protein–ACE2 complex", "details": "cited from earlier work"}, "[6]": {"test_system": "wild-type SARS-CoV-2 pseudovirus", "details": "cited from earlier work"}, "[7]": {"test_system": "TNF-α, IL-6 and IL-1β mRNA in RAW264.7 cells", "format": "cell-based", "details": "co-treated with LPS 0.1 µg/mL, 24 h, Figure S2"}, "[8]": {"test_system": "TNF-α, IL-6 and IL-1β mRNA in RAW264.7 cells", "format": "cell-based"}}}
{"smiles": "O=c1c2ccccc2nc2n1CCc1c-2[nH]c2ccccc12", "note": "[RU, rutaecarpine]", "values": [{"measurement": "inflammatory response induced by SARS-CoV-2", "setting": "[1]", "value": "attenuated the inflammatory response"}, {"measurement": "cell toxicity (cell viability)", "setting": "cells", "value": "little impact on the cell viability"}, {"measurement": "IC50", "setting": "SARS-CoV-2 3CL protease [2]", "value": 1600, "unit": "nM"}, {"measurement": "3CL protease inhibition", "setting": "SARS-CoV-2 3CL protease [3]", "value": "inhibit the 3CL protease"}, {"measurement": "IC50", "setting": "S-protein–ACE2 complex [4]", "value": 1260, "unit": "nM"}, {"measurement": "formation of the S-protein–ACE2 complex", "setting": "S-protein–ACE2 complex [5]", "value": "inhibited the formation of the S-protein–ACE2 complex"}, {"measurement": "entry of SARS-CoV-2 into host cells", "setting": "[6]", "value": "prevented the entry of SARS-CoV-2 into host cells"}]}
{"smiles": "O=c1c2ccc(Nc3ccccc3)cc2nc2n1CCc1c-2[nH]c2ccccc12", "note": "[RU-75]", "values": [{"measurement": "inflammatory suppression", "setting": "[7]", "value": "no significant inflammatory suppression"}, {"measurement": "cell toxicity (cell viability)", "setting": "cells", "value": "little impact on the cell viability"}, {"measurement": "production of inflammatory cytokines (TNF-α, IL-6 and IL-1β)", "setting": "[8]", "value": "significantly reduced"}, {"measurement": "IC50", "setting": "SARS-CoV-2 3CL protease [2]", "value": 1310, "unit": "nM"}, {"measurement": "maximal inhibition, higher than that of RU", "setting": "S-protein–ACE2 complex [4]", "value": "at least 20%"}, {"measurement": "IC50", "setting": "S-protein–ACE2 complex [4]", "value": 1030, "unit": "nM"}]}
{"smiles": "O=C1c2ccc(Nc3ccccc3)cc2NC2=NCCc3c2n1c1ccccc31", "note": "[RU-184]", "values": [{"measurement": "inflammatory suppression", "setting": "[7]", "value": "no significant inflammatory suppression"}, {"measurement": "cell toxicity (cell viability)", "setting": "cells", "value": "little impact on the cell viability"}, {"measurement": "production of inflammatory cytokines (TNF-α, IL-6 and IL-1β)", "setting": "[8]", "value": "significantly reduced"}, {"measurement": "IC50", "setting": "SARS-CoV-2 3CL protease [2]", "value": 1030, "unit": "nM"}, {"measurement": "maximal inhibition, higher than that of RU", "setting": "S-protein–ACE2 complex [4]", "value": "at least 20%"}, {"measurement": "IC50", "setting": "S-protein–ACE2 complex [4]", "value": 780, "unit": "nM"}]}
